Like-named read-outs stand apart in the source and are kept apart here.
How the values were obtained:
[1] = system: ovarian cancer (4 cell lines); assay: CellTiter-Glo Viability Assay, ovarian cancer; type: cell-based; conditions: Homo sapiens, inhibition of cancer cell proliferation
CLK3 = CLK3 (Homo sapiens, UniProt P49761); assay: CLK3 kinase activity assay (Z-lyte, Ser/Thr 18 peptide)
CAMA1 = assay: CellTiter-Glo Viability Assay, breast cancer; type: cell-based; conditions: Homo sapiens, CAMA-1, 96 h; CAMA1, breast cancer, four days; read-out: EC50
ZR-75-1 = assay: CellTiter-Glo Viability Assay, breast cancer; type: cell-based; conditions: Homo sapiens, 96 h; ZR-75-1, breast cancer, four days; read-out: EC50
DU4475 = assay: CellTiter-Glo Viability Assay, breast cancer; type: cell-based; conditions: Homo sapiens, DU-4475, 96 h; DU4475, breast cancer, four days; read-out: EC50
MCF7 = assay: CellTiter-Glo Viability Assay, breast cancer; type: cell-based; conditions: Homo sapiens, 96 h; MCF7, breast cancer, four days; read-out: EC50
T47D = assay: CellTiter-Glo Viability Assay, breast cancer; type: cell-based; conditions: Homo sapiens, 96 h, breast cancer, four days, read-out: EC50
BT-549 = assay: CellTiter-Glo Viability Assay, breast cancer; type: cell-based; conditions: Homo sapiens, 96 h; BT-549, breast cancer, four days; read-out: EC50
HCC1599 = assay: CellTiter-Glo Viability Assay, breast cancer; type: cell-based; conditions: Homo sapiens, 96 h; HCC1599, breast cancer, four days; read-out: EC50
MDA-MB-231-Luc = assay: CellTiter-Glo Viability Assay, breast cancer; type: cell-based; conditions: Homo sapiens, 96 h; MDA-MB-231-Luc, breast cancer, four days; read-out: EC50
CLK2 = target: T1, CLK2 (Homo sapiens, UniProt P49760); assay: CLK2 kinase activity assay (Z-lyte, Ser/Thr 6 peptide); type: biochemical; conditions: recombinant CLK2 kinase, ATP 60 μM; read-out: EC50
T1 construct: purchased Thermo Fisher (Life Technologies), Z'-LYTE Kinase Assay Kits
Protocol: All reactions were performed in duplicate.

[2] = system: pancreatic cancer (8 cell lines); assay: CellTiter-Glo Viability Assay, pancreatic cancer; type: cell-based; conditions: Homo sapiens, inhibition of cancer cell proliferation
all 50 cell lines = assay: CellTiter-Glo Viability Assay, average across all cell lines; type: cell-based; conditions: Homo sapiens; across all 50 cell lines; read-out: average EC50 for inhibition of cancer cell proliferation
In short: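 Cancer cell lines of several tumour types plated at 300-3,000 cells/well and exposed to compound in duplicate for four days at 37° C, 5% CO2, with DMSO-treated controls. Viability read by CellTiter-Glo luminescence (ATP content); EC50 derived from dose-response curves.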

[3] = system: lung cancer (4 cell lines); assay: CellTiter-Glo Viability Assay, lung cancer; type: cell-based; conditions: Homo sapiens, inhibition of cancer cell proliferation
[4] = system: prostate cancer (5 cell lines); assay: CellTiter-Glo Viability Assay, prostate cancer; type: cell-based; conditions: Homo sapiens
[5] = system: haematopoietic & lymphoid tumors (13 cell lines); assay: CellTiter-Glo Viability Assay, haematopoietic & lymphoid tumors; type: cell-based; conditions: Homo sapiens, inhibition of cancer cell proliferation
[6] = system: colorectal cancer (6 cell lines); assay: CellTiter-Glo Viability Assay, colorectal cancer; type: cell-based; conditions: Homo sapiens, inhibition of cancer cell proliferation
[7] = system: liver cancer (3 cell lines); assay: CellTiter-Glo Viability Assay, liver cancer; type: cell-based; conditions: Homo sapiens, inhibition of cancer cell proliferation

T1 sequence (P49760 whole entry): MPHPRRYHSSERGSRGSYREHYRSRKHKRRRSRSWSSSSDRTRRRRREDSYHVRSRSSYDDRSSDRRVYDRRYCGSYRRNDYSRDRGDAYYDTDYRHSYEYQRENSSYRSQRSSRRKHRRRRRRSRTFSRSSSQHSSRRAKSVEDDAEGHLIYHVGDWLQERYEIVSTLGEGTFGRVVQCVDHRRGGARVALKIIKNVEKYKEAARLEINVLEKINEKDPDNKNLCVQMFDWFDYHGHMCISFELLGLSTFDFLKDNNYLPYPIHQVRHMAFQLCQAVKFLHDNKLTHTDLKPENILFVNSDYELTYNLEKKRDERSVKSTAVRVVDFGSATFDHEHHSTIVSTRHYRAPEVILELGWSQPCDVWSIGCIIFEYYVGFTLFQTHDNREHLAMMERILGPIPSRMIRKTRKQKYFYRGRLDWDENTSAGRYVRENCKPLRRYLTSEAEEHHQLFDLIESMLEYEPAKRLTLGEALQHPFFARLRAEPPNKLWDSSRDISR
Chain of CLK3 (P49761 whole entry): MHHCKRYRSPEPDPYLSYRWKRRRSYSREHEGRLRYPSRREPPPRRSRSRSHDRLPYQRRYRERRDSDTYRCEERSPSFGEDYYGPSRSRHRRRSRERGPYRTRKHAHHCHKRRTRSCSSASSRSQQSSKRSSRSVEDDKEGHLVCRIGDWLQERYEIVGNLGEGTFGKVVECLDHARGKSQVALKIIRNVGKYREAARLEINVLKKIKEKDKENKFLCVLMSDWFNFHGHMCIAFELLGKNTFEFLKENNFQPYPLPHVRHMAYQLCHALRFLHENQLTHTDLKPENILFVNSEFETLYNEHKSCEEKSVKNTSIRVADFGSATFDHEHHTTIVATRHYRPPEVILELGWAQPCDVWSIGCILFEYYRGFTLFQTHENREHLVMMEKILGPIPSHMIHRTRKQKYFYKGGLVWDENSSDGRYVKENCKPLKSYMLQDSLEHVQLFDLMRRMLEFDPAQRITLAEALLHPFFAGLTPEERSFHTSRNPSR

EC50 ([1]; PA-1, PA1 cell line, read-out: Ovarian cancer, EC50 (μM) PA1): 0.403 µM | EC50 ([1]; TOV112D, TOV-112D cell line, read-out: Ovarian cancer, EC50 (μM) TOV-112D): 0.192 µM | EC50 ([1]; OV-90 cell line, read-out: Ovarian cancer, EC50 (μM) OV-90): 0.567 µM | EC50 ([1]; OVCAR-3 cell line, read-out: Ovarian cancer, EC50 (μM) OVCAR-3): 0.179 µM | EC50 (CLK3): 17.6 nM | EC50 (CAMA1): 210 nM | EC50 (ZR-75-1): 358 nM | EC50 (DU4475): 77 nM | EC50 (MCF7): 1960 nM | EC50 (T47D): 468 nM | EC50 (BT-549): 409 nM | EC50 (HCC1599): 75 nM | EC50 (MDA-MB-231-Luc): 407 nM | EC50 (CLK2): 1.3 nM | EC50 ([2]; BXPC-3, BxPC3 cell line, read-out: Pancreatic cancer, EC50 BxPC3): 770 nM | EC50 ([2]; CAPAN-1, Capan1 cell line, read-out: Pancreatic cancer, EC50 Capan1): 761 nM | EC50 ([2]; Capan-2, Capan2 cell line, read-out: Pancreatic cancer, EC50 Capan2): 540 nM | EC50 ([2]; MIA PaCa-2 cell line, read-out: Pancreatic cancer, EC50 MIA PaCa-2): 112 nM | EC50 ([2]; PANC 05.04 cell line, read-out: Pancreatic cancer, EC50 PANC 05.04): 791 nM | EC50 ([2]; PANC-1 cell line, read-out: Pancreatic cancer, EC50 PANC-1): 1780 nM | EC50 ([2]; UPAFII cell line, read-out: Pancreatic cancer, EC50 UPAFII): 357 nM | EC50 ([3]; A-427, A427 cell line, read-out: Lung cancer, EC50 (μM) A427): 0.14 µM | EC50 ([3]; HCC78, HCC-78 cell line, read-out: Lung cancer, EC50 (μM) HCC-78): 0.666 µM | EC50 ([3]; NCI-H460 cell line, read-out: Lung cancer, EC50 (μM) NCI-H460): 2.64 µM | EC50 ([3]; NCI-H522 cell line, read-out: Lung cancer, EC50 (μM) NCI-H522): 0.157 µM | EC50 ([4]; DU-145, read-out: Prostate cancer EC50 Du-145): 459 nM | EC50 ([4]; PC-3, PC3 cell line, inhibition of cancer cell proliferation, read-out: Prostate cancer EC50 PC3): 322 nM | EC50 ([4]; 22Rv1 cell line, inhibition of cancer cell proliferation, read-out: Prostate cancer EC50 22Rv1): 283 nM | EC50 ([4]; LNCap clone FGC cell line, inhibition of cancer cell proliferation, read-out: Prostate cancer EC50 LNCap clone FGC): 965 nM | EC50 ([4]; VCaP (Sigma) cell line, inhibition of cancer cell proliferation, read-out: Prostate cancer EC50 VCaP (Sigma)): 574 nM | EC50 ([5]; DND41, DND-41 cell line, read-out: Haematopoietic & Lymphoid tumors, EC50 (μM) DND-41): 0.129 µM | EC50 ([5]; MV4-11, MV-4-11 cell line, read-out: Haematopoietic & Lymphoid tumors, EC50 (μM) MV-4-11): 0.07 µM | EC50 ([5]; Rec1, REC-1 cell line, read-out: Haematopoietic & Lymphoid tumors, EC50 (μM) REC-1): 0.453 µM | EC50 ([5]; SU-DHL-4, SUDHL4 cell line, read-out: Haematopoietic & Lymphoid tumors, EC50 (μM) SUDHL4): 0.14 µM | EC50 ([5]; HL-60 cell line, read-out: Haematopoietic & Lymphoid tumors, EC50 (μM) HL-60): 0.769 µM | EC50 ([5]; JM1 cell line, read-out: Haematopoietic & Lymphoid tumors, EC50 (μM) JM1): 0.075 µM | EC50 ([5]; JURKAT, Clone E6-1 cell line, read-out: Haematopoietic & Lymphoid tumors, EC50 (μM) JURKAT, Clone E6-1): 0.466 µM | EC50 ([5]; JeKo-1 cell line, read-out: Haematopoietic & Lymphoid tumors, EC50 (μM) JeKo-1): 0.048 µM | EC50 ([5]; KASUMI-1 cell line, read-out: Haematopoietic & Lymphoid tumors, EC50 (μM) KASUMI-1): 0.25 µM | EC50 ([5]; Loucy cell line, read-out: Haematopoietic & Lymphoid tumors, EC50 (μM) Loucy): 0.136 µM | EC50 ([5]; MOLT-4 cell line, read-out: Haematopoietic & Lymphoid tumors, EC50 (μM) MOLT-4): 0.404 µM | EC50 ([5]; TF-1 cell line, read-out: Haematopoietic & Lymphoid tumors, EC50 (μM) TF-1): 0.861 µM | EC50 ([5]; TOLEDO cell line, read-out: Haematopoietic & Lymphoid tumors, EC50 (μM) TOLEDO): 0.077 µM | EC50 ([6]; HCT-116, HCT116 cell line, read-out: Colorectal cancer, EC50 (μM) HCT116): 0.402 µM | EC50 ([6]; HT-29, HT29 cell line, read-out: Colorectal cancer, EC50 (μM) HT29): 1.43 µM | EC50 ([6]; SW-620, SW620 cell line, read-out: Colorectal cancer, EC50 (μM) SW620): 0.164 µM | EC50 ([6]; DLD-1 cell line, read-out: Colorectal cancer, EC50 (μM) DLD-1): 0.658 µM | EC50 ([6]; SW48 cell line, read-out: Colorectal cancer, EC50 (μM) SW48): 0.164 µM | EC50 ([6]; SW480 cell line, read-out: Colorectal cancer, EC50 (μM) SW480): 0.22 µM | EC50 ([7]; SNU-398, SNU398 cell line, read-out: Liver cancer, EC50 SNU398): 57 nM | EC50 ([7]; HEPG2 cell line, read-out: Liver cancer, EC50 HEPG2): 371 nM | EC50 ([7]; PLC/PRF/5 cell line, read-out: Liver cancer, EC50 PLC/PRF/5): 1820 nM
SMILES: O=C(Nc1cncc(-c2ccc3[nH]nc(-c4cc5cnccc5[nH]4)c3c2)c1)C1CCCCC1 [Compound 47]
EC50 (all 50 cell lines): 516 nM

Source: patent US20220062240A1, “METHODS OF TREATING CANCER USING A CLK INHIBITOR” (BioSplice Therapeutics, Inc., priority 2018, published 2022)
